Measurements from publication PMC3914206.

Assays:
panel of 442 kinases [1] = target: T1, panel of 442 kinases (Homo sapiens, UniProt Q96PY6); type: binding; conditions: Compound Concentration 10 µM
T1 construct: purchased KINOMEscan
T1 sequence (Q96PY6 1-1258): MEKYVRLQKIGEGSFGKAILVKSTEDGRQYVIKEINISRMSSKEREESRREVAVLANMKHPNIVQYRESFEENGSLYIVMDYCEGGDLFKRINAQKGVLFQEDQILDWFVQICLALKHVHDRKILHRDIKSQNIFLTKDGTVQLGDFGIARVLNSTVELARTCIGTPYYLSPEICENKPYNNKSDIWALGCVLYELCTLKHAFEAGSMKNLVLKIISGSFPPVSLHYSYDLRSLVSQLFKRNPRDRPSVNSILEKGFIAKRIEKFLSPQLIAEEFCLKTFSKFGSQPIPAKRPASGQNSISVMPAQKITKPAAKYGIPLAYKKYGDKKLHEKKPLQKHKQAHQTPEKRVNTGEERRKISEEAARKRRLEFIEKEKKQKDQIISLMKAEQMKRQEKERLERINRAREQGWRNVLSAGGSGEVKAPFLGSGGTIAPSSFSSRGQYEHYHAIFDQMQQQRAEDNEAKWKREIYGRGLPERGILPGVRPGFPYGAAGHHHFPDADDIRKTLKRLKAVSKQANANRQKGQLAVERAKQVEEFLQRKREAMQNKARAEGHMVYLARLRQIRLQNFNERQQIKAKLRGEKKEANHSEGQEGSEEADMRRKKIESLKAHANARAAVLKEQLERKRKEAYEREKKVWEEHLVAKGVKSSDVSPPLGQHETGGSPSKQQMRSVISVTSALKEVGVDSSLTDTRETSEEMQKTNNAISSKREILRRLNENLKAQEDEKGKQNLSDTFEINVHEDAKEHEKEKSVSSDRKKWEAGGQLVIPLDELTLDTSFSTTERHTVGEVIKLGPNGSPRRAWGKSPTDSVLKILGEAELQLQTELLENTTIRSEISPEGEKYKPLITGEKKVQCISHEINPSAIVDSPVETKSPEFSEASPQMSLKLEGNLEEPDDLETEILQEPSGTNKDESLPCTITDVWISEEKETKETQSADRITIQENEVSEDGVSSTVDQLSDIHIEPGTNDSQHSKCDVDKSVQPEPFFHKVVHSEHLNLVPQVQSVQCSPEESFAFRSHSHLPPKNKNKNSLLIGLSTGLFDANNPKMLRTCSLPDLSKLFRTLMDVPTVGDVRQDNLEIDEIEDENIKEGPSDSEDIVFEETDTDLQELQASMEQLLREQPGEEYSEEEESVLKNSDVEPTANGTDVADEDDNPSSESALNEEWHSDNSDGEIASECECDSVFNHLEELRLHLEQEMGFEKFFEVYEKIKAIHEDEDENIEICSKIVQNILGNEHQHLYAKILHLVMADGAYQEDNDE
From the text: (§1) We assessed the selectivity of members of this scaffold using the KINOMEscan methodology across a near comprehensive panel of 442 kinases [[18,27]].

panel of 442 kinases [2] = target: T2, panel of 442 kinases (Homo sapiens, UniProt Q02779); type: binding; conditions: Compound Concentration 10 µM
T2 construct: purchased KINOMEscan
From the text: as §1

T2 sequence (Q02779 whole entry): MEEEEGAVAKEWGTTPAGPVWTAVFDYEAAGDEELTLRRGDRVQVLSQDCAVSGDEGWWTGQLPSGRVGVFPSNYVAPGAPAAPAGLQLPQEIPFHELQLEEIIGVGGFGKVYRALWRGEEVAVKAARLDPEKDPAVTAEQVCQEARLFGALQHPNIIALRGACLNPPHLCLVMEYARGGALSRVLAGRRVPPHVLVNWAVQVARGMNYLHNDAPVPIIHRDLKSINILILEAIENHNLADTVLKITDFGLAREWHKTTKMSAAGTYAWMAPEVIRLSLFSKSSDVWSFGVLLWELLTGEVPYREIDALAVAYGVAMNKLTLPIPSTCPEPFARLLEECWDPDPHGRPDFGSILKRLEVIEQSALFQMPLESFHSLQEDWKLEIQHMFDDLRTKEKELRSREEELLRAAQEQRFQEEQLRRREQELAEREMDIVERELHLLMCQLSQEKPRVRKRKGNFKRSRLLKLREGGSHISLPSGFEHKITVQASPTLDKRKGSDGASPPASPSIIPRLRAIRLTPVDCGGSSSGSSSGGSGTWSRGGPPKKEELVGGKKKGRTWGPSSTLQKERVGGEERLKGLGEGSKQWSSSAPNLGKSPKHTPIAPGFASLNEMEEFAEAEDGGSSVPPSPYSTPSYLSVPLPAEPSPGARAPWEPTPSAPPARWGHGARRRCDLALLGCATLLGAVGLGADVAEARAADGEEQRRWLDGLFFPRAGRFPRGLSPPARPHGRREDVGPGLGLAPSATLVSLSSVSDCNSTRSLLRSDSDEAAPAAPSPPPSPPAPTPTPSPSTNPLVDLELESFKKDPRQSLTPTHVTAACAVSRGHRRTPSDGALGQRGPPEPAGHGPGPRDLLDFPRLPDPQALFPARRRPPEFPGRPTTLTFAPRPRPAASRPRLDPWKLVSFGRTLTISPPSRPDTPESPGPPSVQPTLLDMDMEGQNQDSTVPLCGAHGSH

Compound	KINOMEscan: NEK1 (panel of 442 kinases [1])	KINOMEscan: MLK2 (panel of 442 kinases [2])
COc1cc(C(=O)N2CCC(N3CCN(C)CC3)CC2)ccc1Nc1ncc2c(n1)N(C)c1ccccc1C(=O)N2C [15 (LRRK2-IN-1)]	83	100
COc1cc(C(=O)N2CCC(N3CCN(C)CC3)CC2)ccc1Nc1ncc2c(n1)N1CCc3cccc(c31)C(=O)N2C [Compound 24]	63	98
COc1cc(C(=O)N2CCC(N3CCN(C)CC3)CC2)ccc1Nc1ncc2c(n1)N(C1CCCC1)c1ccccc1C(=O)N2C [Compound 25, 11-cyclopentyl-2-((2-methoxy-4-(4-(4-methylpiperazin-1-yl)piperidine-1-carbonyl)phenyl)amino)-5-methyl-5H-benzo[e]pyrimido[5,4-b][1,4]diazepin-6(11H)-one]	72	96
CCOc1cc(C(=O)N2CCC(N3CCN(C)CC3)CC2)ccc1Nc1ncc2c(n1)N(C1CCCC1)c1ccccc1C(=O)N2C [Compound 26]	84	100
